Experimental data taken from patent publication US20160219881A1, “HERBICIDALLY ACTIVE 2-HALOGEN-4-ALKYNYL-PHENYL-PYRAZOLIDINE-DIONE OR PYRROLIDINE-DIONE DERIVATIVES” (SYNGENTA LIMITED, priority 2013, published 2016).

Tests used:
[1] = test system: ZEAMX; assay: Biological Example 3 (Test 2 glasshouse assay), post-emergence herbicidal activity; format: in vivo
Description: (§1) Seeds of a variety of monocotyledonous and dicotyledonous test plants are sown in standard soil in pots. The plants are cultivated for one day (for pre-emergence) or for about 12 days (range=10-13 days) (for post-emergence) under controlled conditions in a glasshouse (warm climate species at 24/18° C., cool climate species at 20/16° C., both at day/night; 16 hours light; 65% humidity). An “instant formulation”, known as the “IF50”, containing 50 g/litre (i.e. 5% w/v) of the “technical” (i.e. unformulated) active ingredient is prepared by dissolving the active ingredient in a mixture of organic solvents and emulsifier, details of which are provided in the Table below. This IF50 is then mixed with a small, variable amount of acetone to aid dissolution, before addition of a 0.2% v/v aqueous solution of the adjuvant X-77 (which is a mixture of alkyl aryl polyoxyethylene glycols and free fatty acids in isopropanol, CAS Registry number 11097-66-8), as the aqueous diluent, to form an aqueous spray solution which contains a predetermined concentration of the active ingredient (which varies depending on the application rate of the active ingredient to the plants) and 0.2% v/v of the adjuvant X-77. This aqueous spray solution is then sprayed onto the plants, after one day's cultivation (for pre-emergence) or after about 12 days' cultivation (for post-emergence). The test plants are then grown on, in a glasshouse (greenhouse) under controlled conditions (at either 24/18° C. or 20/16° C. (day/night) as mentioned above; 16 hours light; 65% humidity) and are watered twice daily. Either 15 days after application of the test compound (15 DAA) (for post-emergence), or 20 days after application of the test compound (20 DAA) (for pre-emergence), the test plants are evaluated visually, and an assessed percentage phytotoxicity score is given for each compound application on each plant species (where 100%=total damage to plant; 0%=no damage to plant).

[2] = test system: Abutilon theophasti Medik. (ABUTH); assay: Test 1A glasshouse assay, post-emergence herbicidal activity; format: in vivo; conditions: 312 h, 13 days after application, read-out: Post-Emergence Herbicidal Activity (% Phytotoxicity) ABUTH
Description: (§2) Seeds of a variety of test species are sown in standard soil (usually sandy soil) in pots. After cultivation for one day (pre-emergence) or after 8 days cultivation (post-emergence) under controlled conditions in a glasshouse (at 24/16° C., day/night; 14 hours light; 65% humidity), the plants are sprayed with an aqueous spray solution derived from the formulation of the technical active ingredient (compound) in acetone/water (50:50) solution containing 0.5% Tween 20 (polyoxyethylene sorbitan monolaurate, CAS RN 9005-64-5). The test plants are then grown under controlled conditions in a glasshouse (at 24/16° C., day/night; 14 hours light; 65% humidity) and watered twice daily. 13 days after application of the test compounds, for pre- and post-emergence, the test is evaluated visually for percentage phytotoxicity to each plant (where 100%=total damage to plant; 0%=no damage to plant).
(§3) Alopecurus myosuroides (ALOMY), Setaria faberi (SETFA), Echinochloa crus-galli (ECHCG), Amaranthus retroflexus (AMARE), and Abutilon theophasti Medik. (ABUTH, common English name “velvetleaf”). Of these, Alopecurus myosuroides (ALOMY), Setaria faberi (SETFA), and Echinochloa crus-galli (ECHCG) are grassy monocotyledonous weeds.

[3] = test system: Amaranthus retroflexus (AMARE); assay: as above; format: in vivo; conditions: 312 h, 13 days after application, read-out: Post-Emergence Herbicidal Activity (% Phytotoxicity) AMARE
Description: as §2, §3

[4] = test system: Setaria faberi (SETFA); assay: as above; format: in vivo; conditions: 312 h, 13 days after application, read-out: Post-Emergence Herbicidal Activity (% Phytotoxicity) SET FA
Description: as §2, §3

[5] = test system: Alopecurus myosuroides (ALOMY); assay: as above; format: in vivo; conditions: 312 h, 13 days after application, read-out: Post-Emergence Herbicidal Activity (% Phytotoxicity) ALOMY
Description: as §2
(§4) Alopecurus myosuroides (ALOMY), Setaria faberi (SETFA), Echinochloa crus-galli (ECHCG), Amaranthus retroflexus (AMARE), and Abutilon theophasti Medik. (ABUTH, common English name “velvetleaf”). Of these, Alopecurus myosuroides (ALOMY), Setaria faberi (SETFA), and Echinochloa crus-galli (ECHCG) are grassy monocotyledonous weeds. […]

[6] = test system: Echinochloa crus-galli (ECHCG); assay: as above; format: in vivo; conditions: 312 h, 13 days after application, read-out: Post-Emergence Herbicidal Activity (% Phytotoxicity) ECHCG
Description: as §2, §4

[7] = test system: Alopecurus myosuroides (ALOMY); assay: Test 1A glasshouse assay, pre-emergence herbicidal activity; format: in vivo; conditions: 312 h, 13 days after application, read-out: Pre-Emergence Herbicidal Activity (% Phytotoxicity) ALOMY
Description: as §2, §3
Lolium perenne (LOLPE), Triticum aestivum (TRZAW, winter wheat), Alopecurus myosuroides (ALOMY), Echinochloa crus-galli (ECHCG), and Avena fatua (AVEFA). All these are grassy monocotyledonous weeds and/or (for wheat) grassy crops.

[8] = test system: POAAN; assay: Biological Example 3 (Test 2 glasshouse assay), post-emergence herbicidal activity; format: in vivo, Poa annua
Description: as §1

[9] = test system: Abutilon theophasti Medik. (ABUTH); assay: Test 1A glasshouse assay, pre-emergence herbicidal activity; format: in vivo; conditions: 312 h, 250 g/ha, 13 days after application, read-out: Pre-Emergence Herbicidal Activity (% Phytotoxicity) ABUTH
Description: as §2, §3

[10] = test system: Amaranthus retroflexus (AMARE); assay: as above; format: in vivo; conditions: 312 h, 250 g/ha, 13 days after application, read-out: Pre-Emergence Herbicidal Activity (% Phytotoxicity) AMARE
Description: as §2, §3

[11] = test system: Setaria faberi (SETFA); assay: as above; format: in vivo; conditions: 312 h, 250 g/ha, 13 days after application, read-out: Pre-Emergence Herbicidal Activity (% Phytotoxicity) SET FA
Description: as §2, §3

| SMILES | Post-Emergence Herbicidal Activity (Percentage Phytotoxicity) ZEAMX ([1]; 30 g/ha (rate by row order)) [%] | Post-Emergence Herbicidal Activity (Percentage Phytotoxicity) ZEAMX ([1]; 125 g/ha (rate by row order)) [%] | inhibition at 250 g/ha [2] [%] | inhibition at 250 g/ha [3] [%] | inhibition at 250 g/ha [4] [%] | inhibition at 250 g/ha [5] [%] | inhibition at 250 g/ha [6] [%] | inhibition at 250 g/ha [7] [%] | Post-Emergence Herbicidal Activity (Percentage Phytotoxicity) POAAN ([8]; 30 g/ha (rate by row order)) [%] | Post-Emergence Herbicidal Activity (Percentage Phytotoxicity) POAAN ([8]; 125 g/ha (rate by row order)) [%] | inhibition at 250 g/ha [9] [%] | inhibition at 250 g/ha [10] [%] | inhibition at 250 g/ha [11] [%] | Post-Emergence Herbicidal Activity (Percentage Phytotoxicity) ZEAMX ([1]; 8 g/ha (rate by row order)) [%] | inhibition at 30 g/ha [2] [%] | inhibition at 30 g/ha [3] [%] | inhibition at 30 g/ha [4] [%] | inhibition at 30 g/ha [5] [%] | inhibition at 30 g/ha [6] [%] | Post-Emergence Herbicidal Activity (Percentage Phytotoxicity) POAAN ([8]; 8 g/ha (rate by row order)) [%] | other results |
| --- | --- | --- | --- | --- | --- | --- | --- | --- | --- | --- | --- | --- | --- | --- | --- | --- | --- | --- | --- | --- | --- |
| CC#Cc1cc(C)c(C2C(=O)N(C)N(C)C2=O)c(C)c1 [Compound A1] | 90 | 100 | 10 | 0 | 40 | 0 | 40 | 0 | 50 | 80 | 0 | 0 | 30 |  |  |  |  |  |  |  |  |
| CC#Cc1cc(C)c(C2C(=O)N3CCCCCN3C2=O)c(C)c1 [Compound A23, 2-(2,6-dimethyl-4-prop-1-ynyl-phenyl)-6,7,8,9-tetrahydro-5H-pyrazolo[1,2-a]diazepine-1,3-dione] | 0 | 30 | 60 | 30 | 80 | 80 | 80 | 90 | 10 | 70 | 10 | 80 | 50 |  |  |  |  |  |  |  |  |
| CC#Cc1cc(C)c(C2C(=O)C(Cc3ccccn3)N(C)C2=O)c(C)c1 (centres unmarked) [Compound A50, 3-(2,6-dimethyl-4-prop-1-ynyl-phenyl)-1-methyl-5-(2-pyridylmethyl)pyrrolidine-2,4-dione] |  |  |  |  |  | 100 | 100 | 90 |  |  |  |  |  |  |  |  |  |  |  |  | inhibition at 15.625 g/ha ([5]; 15.625 g/ha): 30%; inhibition at 62.5 g/ha ([5]; 62.5 g/ha): 90%; inhibition at 15.625 g/ha ([6]; 15.625 g/ha): 80%; inhibition at 62.5 g/ha ([6]; 62.5 g/ha): 100%; inhibition at 62.5 g/ha ([7]; 62.5 g/ha): 70% |
| CC#Cc1cc(C)c(-c2c(OC(=O)C(C)(C)C)n(C)n(C)c2=O)c(C)c1 [Compound P1] | 70 | 100 | 70 | 20 | 90 | 90 | 100 | 100 | 0 | 70 | 10 | 10 | 100 | 60 | 30 | 0 | 70 | 80 | 80 | 0 |  |
| CC#Cc1cc(C)c(-c2c(OC(=O)C(C)(C)C)n3n(c2=O)CCOCC3)c(C)c1 [Compound P4] | 90 | 100 | 70 | 10 | 100 | 90 | 100 | 100 | 70 | 90 | 80 | 100 | 100 | 30 | 70 | 0 | 70 | 70 | 100 | 50 |  |
